Bounds are passed on as bounds.

Human CARM1 (PRMT4), sequence (Q86X55 other isoform, or with tags, fused parts or gaps isoform Q86X55-1): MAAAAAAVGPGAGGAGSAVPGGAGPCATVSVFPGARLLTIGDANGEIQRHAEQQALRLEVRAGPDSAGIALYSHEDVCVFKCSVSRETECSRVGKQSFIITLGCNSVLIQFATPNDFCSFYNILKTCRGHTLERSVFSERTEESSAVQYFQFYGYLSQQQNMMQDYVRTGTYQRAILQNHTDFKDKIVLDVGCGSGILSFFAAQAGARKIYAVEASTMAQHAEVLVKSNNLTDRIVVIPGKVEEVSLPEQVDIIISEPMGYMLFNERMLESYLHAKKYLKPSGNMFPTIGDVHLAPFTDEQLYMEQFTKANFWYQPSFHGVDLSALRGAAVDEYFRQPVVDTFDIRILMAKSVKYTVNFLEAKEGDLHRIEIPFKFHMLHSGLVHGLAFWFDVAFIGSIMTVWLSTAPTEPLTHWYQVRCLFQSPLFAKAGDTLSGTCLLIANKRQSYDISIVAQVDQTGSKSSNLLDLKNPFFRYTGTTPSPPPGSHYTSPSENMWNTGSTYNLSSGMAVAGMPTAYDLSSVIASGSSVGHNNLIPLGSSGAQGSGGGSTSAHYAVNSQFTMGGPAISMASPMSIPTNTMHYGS

The test addresses Human CARM1 (PRMT4) (Homo sapiens (Human), UniProt Q86X55). Put plainly: CARM1 enzyme assay on peptide substrate (3H-SAM Flashplate). The settings on record: Biochemical potencies, classification codes; read-out: Biochem IC50.
A word on the IC50: it is the concentration that gives 50% inhibition. For the compound `CNCC(O)COc1cccc(-c2nc(N[C@@H]3CCOC3)c(C)c(N3CCC4(CCOCC4)C3)n2)c1` (stereo partly drawn) [Example 462-1a], the IC50 is less than 100 nM. As for `CNC[C@@H](O)COc1ccc(Cl)c(-c2nc(N[C@H]3CO[C@@H](C)C3)c(C)c(-c3c(C)noc3C)n2)c1` [Example 152-3], the figure is less than 100 nM; as for `CNCC(O)COc1cccc(-c2nc(-c3ccc(S(C)(=O)=O)cc3)cc(N(C)C3CCOCC3)n2)c1` (stereo not drawn) [Example 499-1a], less than 100 nM; as for `CCOC(=O)N1CC[C@H](Nc2nc(-c3cc(OC[C@H](O)CNC)ccc3Cl)nc(-c3c(C)noc3C)c2Cl)C1` [Example 151-3], less than 100 nM. As for `CNCC(O)COc1cccc(-c2nc(OCC3CCN(C(=O)OC)CC3)c(C)c(-c3c(C)noc3C)n2)c1` (stereo not drawn) [Example 284-1a], the figure is less than 100 nM. Turning to `CNCC(O)COc1ccc(Cl)c(-c2nc(NC3CC(C)N(C(=O)OC)C(C)C3)c(C)c(-c3c(C)noc3C)n2)c1` (stereo not drawn) [Example 46-3], the IC50 was less than 100 nM. Turning to `CNCC(O)COc1cccc(-c2nc(-c3c(C)noc3C)c(C)c(N3[C@@H]4CC[C@H]3CN(C)C4)n2)c1` (stereo partly drawn) [Example 117-1a], the 50% inhibitory concentration (IC50) was less than 100 nM.

As to `CNC[C@H](O)COc1ccc(Cl)c(-c2nc(NC[C@H]3COCCN3C(=O)OC)c(C)c(-c3c(C)noc3C)n2)c1` [Example 58-3], the IC50 was less than 100 nM. Then `CNC[C@@H](O)COc1ccc(Cl)c(-c2nc(N[C@H]3CCN(C)C[C@H]3F)c(Cl)c(-c3c(C)noc3C)n2)c1` [Example 208-3], with less than 100 nM; and `CNCC(O)COc1cc(Cl)cc(-c2nc(N[C@H]3CCOC3)c(C)c(-c3ccncc3)n2)c1` (stereo partly drawn) [Example 45-1], with less than 100 nM; and `CNC[C@H](O)COc1ccc(Cl)c(-c2nc(N[C@@H]3CCN(C(=O)OC)[C@@H](C)C3)c(C)c(-c3c(C)noc3C)n2)c1` [Example 66-3], with less than 100 nM. As to `CNCC(O)COc1ccc(Cl)c(-c2nc(NC3CCOCC3)c(C)c(-c3c(C)nsc3C)n2)c1` (stereo not drawn) [Example 97-3], the IC50 is less than 100 nM. `CNCC(O)COc1cccc(-c2nc(N3CCOCC3)c(C)c(N(C)[C@H]3CCOC3)n2)c1` (stereo partly drawn) [Example 37-1]: the IC50 is less than 100 nM. As for `CCOC(=O)c1sc(-c2cc(N(C)C3CCOCC3)nc(-c3cccc(OCC(O)CNC)c3)n2)nc1C` (stereo not drawn) [Example 565-1a], the figure is less than 100 nM; as for `CNCC(O)COc1cccc(-c2nc(C(C)C)cc(N(C)C3CCOCC3)n2)c1` (stereo not drawn) [Example 13-1], less than 100 nM. With `CNCC(O)COc1cc(Cl)cc(-c2nc(N[C@@H]3CCOC3)c(C)c(-c3ccncc3)n2)c1` (stereo partly drawn) [Example 331-1a], the IC50 is less than 100 nM.

On to `CNCC(O)COc1cc(Cl)cc(-c2nc(C(=O)OC)cc(N(C)C3CCOCC3)n2)c1` (stereo not drawn) [Example 623-1a], for which the IC50 was less than 100 nM. As for `CNCC(O)COc1cccc(-c2nc(N[C@H]3CCOC3)c(C)c(C(=O)N(C)CC3CCOCC3)n2)c1` (stereo partly drawn) [Example 363-1a], the IC50 was in the range of 100 to 1000 nM. Consider `CNCC(O)COc1cccc(-c2nc(C(=O)NC3CCN(C)CC3)cc(-c3c(C)noc3C)n2)c1` (stereo not drawn) [Example 160-1a], for which the IC50 was less than 100 nM. As for `CNCC(O)COc1cccc(-c2nc(-c3c(C)noc3C)c(C)c(N3CCO[C@H](CN(C)S(C)(=O)=O)C3)n2)c1` (stereo partly drawn) [Example 126-1a], the IC50 was less than 100 nM. On to `CNCC(O)COc1cccc(-c2nc(NCC3(O)CCOCC3)c(C)c(-c3c(C)noc3C)n2)c1` (stereo not drawn) [Example 114-1a], for which the 50% inhibitory concentration (IC50) is less than 100 nM. Consider `CNC[C@@H](O)COc1ccc(Cl)c(-c2nc(-c3c(C)noc3C)c(Cl)c(N3Cc4nccnc4C3)n2)c1` [Example 225-3], for which the IC50 is less than 100 nM. `CNC[C@@H](O)COc1ccc(Cl)c(-c2nc(N[C@H]3CCOC3)c(C)c(-c3c(C)noc3C)n2)c1` [Example 111-3]: the IC50 was less than 100 nM. For `CNCC(O)COc1cccc(-c2nc(-c3c(C)noc3C)cc(N(C)C3CCN(C(=O)OC)CC3)n2)c1` (stereo not drawn) [Example 90-1a], the IC50 is less than 100 nM. For the compound `CNC[C@@H](O)COc1ccc(Cl)c(-c2nc(-c3c(C)noc3C)c(C)c(N3CCC4(CN(C(=O)OC)C4)C3)n2)c1` [Example 177-3], the IC50 is less than 100 nM. Then `CNCC(O)COc1cccc(-c2nc(N[C@@H]3CCOC3)c(C)c(N3CC[C@@H](OC)C3)n2)c1` (stereo partly drawn) [Example 369-1a], with less than 100 nM; and `CNCC(O)COc1cccc(-c2nc(N[C@@H]3CCOC3)c(Cl)c(N3CCOCC3)n2)c1` (stereo partly drawn) [Example 376-1a], with less than 100 nM; and `CNC[C@@H](O)COc1ccc(Cl)c(-c2nc(NC[C@H]3CCCN3C(=O)OC(C)C)c(C)c(-c3c(C)noc3C)n2)c1` [Example 160-3], with less than 100 nM. As for `CNCC(O)COc1cccc(-c2nc(N[C@H]3COC(=O)C3)c(C)c(-c3c(C)noc3C)n2)c1` (stereo partly drawn) [Example 267-1a], the IC50 is less than 100 nM. For the compound `CNC[C@@H](O)COc1ccc(Cl)c(-c2nc(N[C@H]3C[C@@H](C)O[C@@H](C)C3)c(C)c(-c3c(C)noc3C)n2)c1` [Example 172-3], the IC50 was less than 100 nM. As for `CNCC(O)COc1cccc(-c2nc(-c3c(C)nn(C(C)C)c3C)cc(N(C)C3CCOCC3)n2)c1` (stereo not drawn) [Example 496-1a], the figure is less than 100 nM. As for `CNCC(O)COc1cccc(-c2nc(NC3CCOC3)c(C)c(N3CCN(C(C)=O)C[C@H]3C)n2)c1` (stereo partly drawn) [Example 421-1a], the figure is less than 100 nM.

Turning to `CNC[C@H](O)COc1cccc(-c2nc(NC3CCOCC3)c(C)c(-c3c(C)noc3C)n2)c1` [Example 55-1a], the IC50 was less than 100 nM. Turning to `CNC[C@H](O)COc1ccc(Cl)c(-c2nc(N[C@H]3CCN(C4CC4)C[C@H]3F)c(C)c(-c3c(C)noc3C)n2)c1` [Example 43-3], the IC50 is less than 100 nM. As for `CNC[C@H](O)COc1ccc(Cl)c(-c2nc(-c3c(C)noc3C)c(C)c(N(C)[C@H]3C[C@@](C)(OC)C3)n2)c1` [Example 95-3], the figure is less than 100 nM; as for `CNCC(O)COc1cccc(-c2nc(-c3c(C)noc3C)c(C)c(N3CCO[C@H](CNC)C3)n2)c1` (stereo partly drawn) [Example 124-1a], less than 100 nM. Consider `CNCC(O)COc1cccc(-c2nc(-c3c(C)noc3C)c(C)c(N3C[C@@H](C)O[C@@H](C)C3)n2)c1` (stereo partly drawn) [Example 164-1a], for which the IC50 was less than 100 nM.

As for `CNCC(O)COc1cccc(-c2nc(N[C@H]3C[C@H](O)C3)c(C)c(-c3c(C)noc3C)n2)c1` (stereo partly drawn) [Example 254-1a], the IC50 was less than 100 nM. As to `CNC[C@H](O)COc1ccc(F)c(-c2nc(-c3c(C)noc3C)c(C)c(N3Cc4cccnc4C3)n2)c1` [Example 91-3], the IC50 was less than 100 nM.

As to `CNCC(O)COc1cccc(-c2nc(-c3c(C)noc3C)cc(N3CCN(C(=O)N(C)C)[C@H](C)C3)n2)c1` (stereo partly drawn) [Example 146-1a], the IC50 is less than 100 nM.

In the case of `CCOC(=O)N1CCOC[C@H]1CNc1nc(-c2cc(OC[C@@H](O)CNC)ccc2Cl)nc(-c2c(C)noc2C)c1C` [Example 24-3], the IC50 was less than 100 nM. On to `CNCC(O)COc1cccc(-c2nc(Nc3ncc(C)cn3)cc(N(C)C3CCOCC3)n2)c1` (stereo not drawn) [Example 513-1a], for which the IC50 was less than 100 nM. Regarding `CNCC(O)COc1cccc(-c2nc(N[C@@H]3CC[C@@H](O)C3)cc(-c3c(C)noc3C)n2)c1` (stereo partly drawn) [Example 44-1a], the IC50 is less than 100 nM. `CNC[C@H](O)COc1ccc(Cl)c(-c2nc(-c3c(C)noc3C)c(C)c(N3CC4(CCN(C5CC5)CC4)C3)n2)c1` [Example 55-3]: the IC50 is less than 100 nM. For the compound `CNC[C@@H](O)COc1ccc(Cl)c(-c2nc(N[C@@H]3CCN(C(=O)OC)[C@@H](C)C3)c(C)c(-c3c(C)noc3C)n2)c1` [Example 101-3], the IC50 is less than 100 nM.
